Results from US8178678B2, “Bis-quaternary ammonium salts and methods for modulating neuronal nicotinic acetylcholine receptors” (University of Kentucky Research Foundation, priority 2006, dated 2012).

How the values were obtained:
[1] = target: T1, Rat Striatal Nicotinic Receptors ([^3H]MLA binding sites; α7) (Rattus norvegicus, UniProt Q05941); assay: Inhibition of [^3H]MLA (methyllycaconitine) binding; conditions: 100 nM analog; [^3H]MLA; nonspecific S-nicotine; rat brain membranes; read-out: [^3H]MLA binding, % inhibition
T1 construct: Whole brain, excluding cortex and cerebellum, was homogenized in 20 vol of ice-cold buffer; from tissue; host or cells: rat brain membranes (whole brain excluding cortex and cerebellum)
T1 sequence (Q05941 23-502): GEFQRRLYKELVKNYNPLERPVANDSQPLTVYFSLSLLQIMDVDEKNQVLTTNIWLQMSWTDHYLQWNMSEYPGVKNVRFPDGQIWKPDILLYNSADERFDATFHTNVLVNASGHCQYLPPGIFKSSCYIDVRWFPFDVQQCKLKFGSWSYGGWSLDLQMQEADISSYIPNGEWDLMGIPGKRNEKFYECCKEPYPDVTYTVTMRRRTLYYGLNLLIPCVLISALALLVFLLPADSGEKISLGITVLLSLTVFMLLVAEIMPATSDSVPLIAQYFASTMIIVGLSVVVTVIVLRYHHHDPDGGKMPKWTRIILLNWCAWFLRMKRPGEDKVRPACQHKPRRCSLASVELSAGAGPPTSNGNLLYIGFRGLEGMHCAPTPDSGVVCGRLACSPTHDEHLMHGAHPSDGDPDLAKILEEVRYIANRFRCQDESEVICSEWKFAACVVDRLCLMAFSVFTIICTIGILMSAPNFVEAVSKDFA
Experimental: Homogenate was centrifuged (25,000 g, 15 min, 4° C). Pellets were resuspended in 20 vol buffer and incubated at 37° C., for 10 min, cooled to 4° C. and centrifuged (25,000 g, 15 min, 4° C.). Pellets were resuspended and centrifuged using the same conditions. […] Upon use, final pellets were resuspended in 20 vol assay buffer. Samples (250 μl) contained 100-140 μg of membrane protein, 3 nM [^3H]-S-nicotine or 3 nM [^3H]-methyllycaconitine (MLA), and bis-quaternary ammonium analog (100 nM) in assay buffer containing 50 mM Tris. Control was in the absence of analog. In [^3H]-S-nicotine and [^3H]-methyllycaconitine binding assays, nonspecific binding was determined in the presence of 10 μM cytisine and 10 μM S-nicotine, respectively. Incubations proceeded for 60 min at room temperature using 96-well plates and were terminated by harvesting on Unifilter-96 GF/B filter plates presoaked in 0.5% polyethylenimine, using a Packard FilterMate harvester. After washing 5 times with 350 μl ice-cold assay buffer, filter plates were dried (60 min, 4° C.), bottom-sealed, and filled with Packard's MicroScint 20 cocktail (40 μl/well). After 60 min, filter plates were top-sealed, and radioactivity determined using a Packard TopCount. Protein concentrations were determined using the Bradford dye-binding procedure bovine serum albumin as the standard. […]

[2] = target: T2, Rat Striatal Nicotinic Receptors ([^3H]NIC binding sites; α4β2) (Rattus norvegicus, UniProt P09483+P12390); assay: Inhibition of [^3H]NIC binding; conditions: 1 h; 100 nM analog; 3 nM [^3H]NIC; nonspecific 10 μM cytisine; rat brain membranes
T2 construct: Whole brain, excluding cortex and cerebellum, was homogenized in 20 vol of ice-cold buffer; from tissue; host or cells: rat brain membranes (whole brain excluding cortex and cerebellum)
T2 sequence (P09483 31-630): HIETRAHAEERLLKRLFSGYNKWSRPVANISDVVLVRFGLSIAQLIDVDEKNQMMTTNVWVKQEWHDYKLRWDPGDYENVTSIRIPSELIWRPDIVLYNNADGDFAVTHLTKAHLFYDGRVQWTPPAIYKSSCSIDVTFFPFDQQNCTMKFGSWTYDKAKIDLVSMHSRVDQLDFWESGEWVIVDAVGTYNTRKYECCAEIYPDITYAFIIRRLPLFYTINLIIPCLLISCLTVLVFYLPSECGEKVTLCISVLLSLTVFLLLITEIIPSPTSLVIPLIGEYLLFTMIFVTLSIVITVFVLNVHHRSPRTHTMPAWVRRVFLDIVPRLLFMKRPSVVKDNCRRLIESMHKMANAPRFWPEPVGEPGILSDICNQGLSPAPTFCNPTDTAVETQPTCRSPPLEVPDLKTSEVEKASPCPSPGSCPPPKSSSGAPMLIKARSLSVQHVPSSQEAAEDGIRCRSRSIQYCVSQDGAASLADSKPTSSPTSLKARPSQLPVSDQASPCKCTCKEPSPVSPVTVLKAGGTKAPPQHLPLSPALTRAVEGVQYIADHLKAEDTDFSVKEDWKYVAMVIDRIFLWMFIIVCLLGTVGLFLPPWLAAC
T2 sequence (P12390 25-500): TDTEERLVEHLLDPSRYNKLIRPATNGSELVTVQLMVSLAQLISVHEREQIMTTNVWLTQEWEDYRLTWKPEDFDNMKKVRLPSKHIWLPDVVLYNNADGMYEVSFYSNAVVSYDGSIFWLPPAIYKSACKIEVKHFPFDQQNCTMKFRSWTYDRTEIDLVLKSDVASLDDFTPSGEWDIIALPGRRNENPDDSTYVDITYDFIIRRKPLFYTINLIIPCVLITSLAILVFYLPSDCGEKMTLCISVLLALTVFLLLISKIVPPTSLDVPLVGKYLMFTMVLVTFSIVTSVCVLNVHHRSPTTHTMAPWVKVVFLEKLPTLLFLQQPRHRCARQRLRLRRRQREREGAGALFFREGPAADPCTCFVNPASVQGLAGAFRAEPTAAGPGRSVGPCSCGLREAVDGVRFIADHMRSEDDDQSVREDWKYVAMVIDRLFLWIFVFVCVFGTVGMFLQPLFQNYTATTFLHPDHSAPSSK
Experimental: Homogenate was centrifuged (25,000 g, 15 min, 4° C). Pellets were resuspended in 20 vol buffer and incubated at 37° C., for 10 min, cooled to 4° C. and centrifuged (25,000 g, 15 min, 4° C.). Pellets were resuspended and centrifuged using the same conditions. […] Upon use, final pellets were resuspended in 20 vol assay buffer. Samples (250 μl) contained 100-140 μg of membrane protein, 3 nM [^3H]-S-nicotine or 3 nM [^3H]-methyllycaconitine (MLA), and bis-quaternary ammonium analog (100 nM) in assay buffer containing 50 mM Tris. Control was in the absence of analog. In [^3H]-S-nicotine and [^3H]-methyllycaconitine binding assays, nonspecific binding was determined in the presence of 10 μM cytisine and 10 μM S-nicotine, respectively. Incubations proceeded for 60 min at room temperature using 96-well plates and were terminated by harvesting on Unifilter-96 GF/B filter plates presoaked in 0.5% polyethylenimine, using a Packard FilterMate harvester. After washing 5 times with 350 μl ice-cold assay buffer, filter plates were dried (60 min, 4° C.), bottom-sealed, and filled with Packard's MicroScint 20 cocktail (40 μl/well). After 60 min, filter plates were top-sealed, and radioactivity determined using a Packard TopCount. Protein concentrations were determined using the Bradford dye-binding procedure bovine serum albumin as the standard.
Specific binding in the [^3H]NIC binding assay is calculated as the difference between the total binding of 3 nM [^3H]NIC and nonspecific binding in the presence of 10 μM cold cytisine. […] Analog-induced inhibition of S-nicotine-evoked [^3H]DA release is calculated as a percent of that in the absence of the bis-quaternary ammonium analog.

[3] = tested on: nicotinic receptors mediating S-nicotine-evoked [^3H]DA release in rat striatal slices; assay: Inhibition of S-nicotine-evoked [^3H]dopamine release from superfused rat striatal slices; assay type: cell-based; conditions: 1 h; 100 nM analog superfused 60 min before NIC 10 μM; rat striatal slices; read-out: [^3H]DA release, % inhibition of S-nicotine-evoked release
Experimental: Rat striatal slices (500 μm thickness, 6-8 mg wet weight) were incubated for 30 minutes in Krebs buffer (118 mM NaCl, 4.7 mM KCl, 1.2 mM MgCl2, 1.0 mM NaH2PO4, 1.3 mM CaCl2, 11.1 mM glucose, 25 mM NaHCO3, 0.11 mM L-ascorbic acid, and 0.004 mM disodium EDTA; pH 7.4, and saturated with 95% O2/5% CO2) in a metabolic shaker at 34° C. Slices were rinsed with 15 mL of fresh buffer and incubated for an additional 30 minutes in fresh buffer containing 0.1 μM [^3H]dopamine (DA; 6 slices/3 mL). Subsequently, slices were rinsed with 15 mL of fresh buffer and transferred to a glass superfusion chamber. Slices were superfused (1.0 mL/min) for 60 minutes with Krebs buffer containing nomifensine (10 μM) and pargyline (10 μM) and maintained at 34° C., pH 7.4, with continual aeration (95% O2/5% CO2). Two five minute samples (5 mL each) were collected to determine basal outflow of [^3H]DA. The bis-quaternary ammonium analogs were added to the superfusion buffer after the collection of the second sample and remained in the buffer until 12 consecutive five minute samples were collected. Subsequently, S-nicotine (NIC; 10 μM) was added to the buffer and an additional 12 consecutive five minute samples were collected. At the end of the experiment, each slice was solubilized and the [^3H] content of the tissue determined.
Radioactivity in the superfusate and tissue samples was determined by liquid scintillation spectroscopy. Fractional release for tritium collected in each sample was divided by the total tritium present in the tissue at the time of sample collection and was expressed as a percentage of total tritium. Basal [^3H]outflow was calculated from the average of the tritium collected in the two five minute samples just before addition of the quaternary analog. The sum of the increase in collected tritium resulting from either exposure to the test compound or exposure to S-nicotine in the absence and presence of the test compound equaled total [^3H]overflow. [^3H]Overflow was calculated by subtracting the [^3H]outflow during an equivalent period of prestimulation from the values in samples collected during and after drug exposure. Inasmuch as the radiolabelled compounds were not separated and identified, the tritium collected in superfusate is referred to as either [3H]outflow or [^3H]overflow, rather than as [^3H]DA. [^3H]Overflow primarily represents [^3H]DA in the presence of nomifensine and pargyline in the superfusion buffer.
The bis-quaternary ammonium analogs were also evaluated for their ability to inhibit NIC evoked [^3H]DA release. In these experiments, the striatal slices were superfused for 60 minutes with 100 nM concentration of the quaternary analogs prior to NIC (10 μM) exposure. Antagonist activity was evaluated by comparing the NIC-evoked [^3 H]overflow in the absence and presence of the analogs. The relative order of potency of the quaternary analogs for inhibition of NIC-evoked [^3H]DA release from rat striatal slices is illustrated in Table 1.
^aData are % inhibition at 100 nM concentration of the bis-quaternary ammonium analogs for at least 1-3 independent experiments; with the exception of when a Ki value in μM is provided, in which case a full concentration effect was evaluated. Specific binding in the [^3H]NIC binding assay is calculated as the difference between the total binding of 3 nM [^3H]NIC and nonspecific binding in the presence of 10 μM cold cytisine. Specific binding for the [^3H]MLA binding assay is calculated as the difference between the total binding of […] [^3H]MLA to the receptors alone and its nonspecific binding in the presence of […] cold S-nicotine. Analog-induced inhibition of S-nicotine-evoked [^3H]DA release is calculated as a percent of that in the absence of the bis-quaternary ammonium analog.

Row | SMILES | inhibition at 0.1 µM [1] [%] | inhibition at 0.1 µM [2] [%] | inhibition at 0.1 µM [3] [%]
1 | OCCCc1ccc[n+](CCCCc2ccc(CCCC[n+]3cccc(CCCO)c3)cc2)c1 [Example 17, N,N′-[1,4-phenylenedi-(4-butanyl)]-bis-[3-(3-hydroxy-propyl)-pyridinium]dibromide] | 3 | 0 | 40
2 | Cc1cccc[n+]1CCCC#Cc1ccccc1C#CCCC[n+]1ccccc1C [Example 23, 1,2-bis-[5-(2-methyl-pyridinium)-pent-1-ynyl]-benzene dibromide] | 1.2 | 2.1 | 25
3 | Cc1ccc[n+](CCCC#Cc2ccccc2C#CCCC[n+]2cccc(C)c2)c1 [Example 24, 1,2-bis-[5-(3-methyl-pyridinium)-pent-1-ynyl]-benzene dibromide] | 0 | 3.9 | 46
4 | Cc1cc[n+](CCCC#Cc2ccccc2C#CCCC[n+]2ccc(C)cc2)cc1 [Example 25, 1,2-bis-[5-(4-methyl-pyridinium)-pent-1-ynyl]-benzene dibromide] | 5.4 | 2.5 | 12
5 | Cc1cc[n+](CCCC#Cc2ccccc2C#CCCC[n+]2ccc(C)cc2C)c(C)c1 [Example 26, 1,2-bis-[5-(2,4-dimethyl-pyridinium)-pent-1-ynyl]-benzene dibromide] | 0 | 0 | 18
6 | Cc1cc[n+](CCCC#Cc2ccccc2C#CCCC[n+]2ccc(C)c(C)c2)cc1C [Example 27, 1,2-bis-[5-(3,4-dimethyl-pyridinium)-pent-1-ynyl]-benzene dibromide] | 4.2 | 4.2 | 23
7 | Cc1cc(C)c[n+](CCCC#Cc2ccccc2C#CCCC[n+]2cc(C)cc(C)c2)c1 [Example 28, 1,2-bis-[5-(3,5-dimethyl-pyridinium)-pent-1-ynyl]-benzene dibromide] | 5 | 1.3 | 19
8 | C(#Cc1ccccc1C#CCCC[n+]1cccc2ccccc21)CCC[n+]1cccc2ccccc21 [Example 29, 1,2-bis-(5-quinolinium-pent-1-ynyl)-benzene dibromide] | 2.3 | 0 | 20
9 | C(#Cc1ccccc1C#CCCC[n+]1ccc2ccccc2c1)CCC[n+]1ccc2ccccc2c1 [Example 30, 1,2-bis-(5-isoquinolinium-pent-1-ynyl)-benzene dibromide] | 1.1 | 1.6 | 24
10 | CN1CCC[C@@H]1c1ccc[n+](CCCC#Cc2ccccc2C#CCCC[n+]2cccc([C@@H]3CCCN3C)c2)c1 [Example 31, 1,2-bis-[5-(2′-S-nicotinium-pent-1-ynyl)]benzene dibromide] | 9.2 | 72 | 35
11 | Cc1cccc[n+]1CCCCCc1ccccc1CCCCC[n+]1ccccc1C [Example 34, 1,2-bis-[5-(2-methyl-pyridinium)-pentyl]-benzene dibromide] | 7.6 | 0 | 8
12 | Cc1ccc[n+](CCCCCc2ccccc2CCCCC[n+]2cccc(C)c2)c1 [Example 35, 1,2-bis-[5-(3-methyl-pyridinium)-pentyl]-benzene dibromide] | 5.4 | 0 | 25
13 | Cc1cc[n+](CCCCCc2ccccc2CCCCC[n+]2ccc(C)cc2)cc1 [Example 36, 1,2-bis-[5-(4-methyl-pyridinium)-pentyl]-benzene dibromide] | 3.1 | 0 | 11
14 | Cc1cc[n+](CCCCCc2ccccc2CCCCC[n+]2ccc(C)cc2C)c(C)c1 [Example 37, 1,2-bis-[5-(2,4-dimethyl-pyridinium)-pentyl]-benzene dibromide] | 4.8 | 0 | 20
15 | Cc1cc(C)c[n+](CCOCCOCCOCC[n+]2cc(C)cc(C)c2)c1 [Example 90, N,N′-{2,2′-[oxybis-(2,1-ethandiyloxy)]bis-ethyl}-bis-(3,5-dimethylpyridinium)dichloride] | 5 | 10 | 
16 | Cc1ccc[n+](CC#Cc2ccc(-c3ccc(C#CC[n+]4cccc(C)c4)cc3)cc2)c1 [Example 102, N,N′-[(1,1′-biphenyl)-4,4′-di-(1-propyn-3-yl)]-bis-(3-methylpyridinium)dibromide] | 12 | 9.4 | 
17 | Cc1cc[n+](CC#Cc2ccc(-c3ccc(C#CC[n+]4ccc(C)cc4)cc3)cc2)cc1 [Example 103, N,N′-[(1,1′-biphenyl)-4,4′-di-(1-propyn-3-yl)]-bis-(4-methylpyridinium)dibromide] | 12 | 9.6 | 
18 | Cc1cc[n+](CC#Cc2ccc(-c3ccc(C#CC[n+]4ccc(C)c(C)c4)cc3)cc2)cc1C [Example 104, N,N′-[(1,1′-biphenyl)-4,4′-di-(1-propyn-3-yl)]-bis-(3,4-dimethylpyridinium)dibromide] | 16 | 19 | 
